46 compounds from ChEMBL document CHEMBL1806450, “Synthesis of an aryloxy oxo pyrimidinone library that displays ALK-selective inhibition” (Bioorg Med Chem Lett, 2011) can be followed below.

Experiment [1] deals with Insulin receptor (Homo sapiens, UniProt P06213).
Description: Inhibition of recombinant IRK using biotinylated-poly(GT) peptide as substrate after 60 mins
Experiment [2] concerns the target ALK tyrosine kinase receptor (Homo sapiens, UniProt Q9UM73).
Description: Inhibition of 6xHis-tagged NPM-ALK using biotinylated-poly(GT) peptide as substrate after 60 mins
Experiment [3] addresses Hepatocyte growth factor receptor (Homo sapiens, UniProt P08581).
Description: Inhibition of recombinant MET using biotinylated-poly(GT) peptide as substrate after 60 mins

Chain of Hepatocyte growth factor receptor (P08581 whole entry): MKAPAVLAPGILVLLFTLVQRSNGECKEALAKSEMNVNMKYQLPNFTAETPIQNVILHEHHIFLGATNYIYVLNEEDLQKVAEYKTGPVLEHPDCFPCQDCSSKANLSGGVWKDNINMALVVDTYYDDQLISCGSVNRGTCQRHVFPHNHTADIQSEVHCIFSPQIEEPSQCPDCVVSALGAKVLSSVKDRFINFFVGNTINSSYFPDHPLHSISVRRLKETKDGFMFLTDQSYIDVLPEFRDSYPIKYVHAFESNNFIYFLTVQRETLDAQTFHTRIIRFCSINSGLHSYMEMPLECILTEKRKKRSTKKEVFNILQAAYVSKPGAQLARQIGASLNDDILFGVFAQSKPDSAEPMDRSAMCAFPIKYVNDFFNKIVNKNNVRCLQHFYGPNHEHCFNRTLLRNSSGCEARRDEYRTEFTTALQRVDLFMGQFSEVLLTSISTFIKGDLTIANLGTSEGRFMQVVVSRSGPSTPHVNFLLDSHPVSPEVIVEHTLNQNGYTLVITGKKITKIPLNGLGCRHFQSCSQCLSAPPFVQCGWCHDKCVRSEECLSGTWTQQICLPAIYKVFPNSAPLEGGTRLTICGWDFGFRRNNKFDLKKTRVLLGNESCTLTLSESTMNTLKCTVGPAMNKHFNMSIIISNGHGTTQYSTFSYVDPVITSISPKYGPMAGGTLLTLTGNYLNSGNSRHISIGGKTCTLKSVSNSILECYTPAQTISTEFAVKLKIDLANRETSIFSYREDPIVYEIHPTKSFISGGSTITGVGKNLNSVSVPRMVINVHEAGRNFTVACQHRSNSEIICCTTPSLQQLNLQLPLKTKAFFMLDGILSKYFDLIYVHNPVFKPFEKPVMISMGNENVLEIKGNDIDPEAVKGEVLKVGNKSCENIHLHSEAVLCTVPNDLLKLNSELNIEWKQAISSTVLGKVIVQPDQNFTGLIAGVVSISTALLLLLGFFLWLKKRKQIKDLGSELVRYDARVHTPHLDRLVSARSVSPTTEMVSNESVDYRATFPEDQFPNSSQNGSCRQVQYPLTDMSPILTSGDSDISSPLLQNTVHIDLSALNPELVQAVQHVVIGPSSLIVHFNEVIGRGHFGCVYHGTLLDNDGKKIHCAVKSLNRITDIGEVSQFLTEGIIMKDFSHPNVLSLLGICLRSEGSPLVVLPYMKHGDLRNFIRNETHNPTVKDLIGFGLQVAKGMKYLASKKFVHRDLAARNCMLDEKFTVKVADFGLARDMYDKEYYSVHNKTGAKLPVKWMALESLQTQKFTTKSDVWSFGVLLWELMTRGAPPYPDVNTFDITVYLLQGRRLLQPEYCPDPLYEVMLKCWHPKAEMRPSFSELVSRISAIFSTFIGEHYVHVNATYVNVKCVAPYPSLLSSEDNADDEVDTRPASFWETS
Chain of Insulin receptor (P06213 28-758 limits assumed): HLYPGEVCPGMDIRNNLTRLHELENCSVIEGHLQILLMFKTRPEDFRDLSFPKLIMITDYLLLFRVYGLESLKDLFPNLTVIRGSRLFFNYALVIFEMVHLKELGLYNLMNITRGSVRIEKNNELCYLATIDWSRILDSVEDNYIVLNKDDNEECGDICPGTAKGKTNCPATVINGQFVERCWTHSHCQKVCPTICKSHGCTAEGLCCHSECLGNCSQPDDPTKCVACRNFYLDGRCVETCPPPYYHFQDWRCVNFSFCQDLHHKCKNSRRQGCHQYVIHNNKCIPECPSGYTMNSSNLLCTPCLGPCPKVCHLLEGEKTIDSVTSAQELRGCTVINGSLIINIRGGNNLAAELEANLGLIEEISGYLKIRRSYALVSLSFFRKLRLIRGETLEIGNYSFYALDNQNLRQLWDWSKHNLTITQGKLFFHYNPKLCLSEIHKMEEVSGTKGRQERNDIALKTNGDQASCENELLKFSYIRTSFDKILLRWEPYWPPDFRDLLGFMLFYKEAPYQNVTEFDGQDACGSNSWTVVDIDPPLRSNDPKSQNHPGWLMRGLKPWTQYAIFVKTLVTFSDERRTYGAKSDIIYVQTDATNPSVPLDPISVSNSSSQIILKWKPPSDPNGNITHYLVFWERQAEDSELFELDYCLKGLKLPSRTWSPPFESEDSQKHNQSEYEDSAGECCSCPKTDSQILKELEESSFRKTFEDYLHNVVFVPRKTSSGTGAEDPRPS
Chain of Insulin receptor (P06213 763-1382 limits assumed): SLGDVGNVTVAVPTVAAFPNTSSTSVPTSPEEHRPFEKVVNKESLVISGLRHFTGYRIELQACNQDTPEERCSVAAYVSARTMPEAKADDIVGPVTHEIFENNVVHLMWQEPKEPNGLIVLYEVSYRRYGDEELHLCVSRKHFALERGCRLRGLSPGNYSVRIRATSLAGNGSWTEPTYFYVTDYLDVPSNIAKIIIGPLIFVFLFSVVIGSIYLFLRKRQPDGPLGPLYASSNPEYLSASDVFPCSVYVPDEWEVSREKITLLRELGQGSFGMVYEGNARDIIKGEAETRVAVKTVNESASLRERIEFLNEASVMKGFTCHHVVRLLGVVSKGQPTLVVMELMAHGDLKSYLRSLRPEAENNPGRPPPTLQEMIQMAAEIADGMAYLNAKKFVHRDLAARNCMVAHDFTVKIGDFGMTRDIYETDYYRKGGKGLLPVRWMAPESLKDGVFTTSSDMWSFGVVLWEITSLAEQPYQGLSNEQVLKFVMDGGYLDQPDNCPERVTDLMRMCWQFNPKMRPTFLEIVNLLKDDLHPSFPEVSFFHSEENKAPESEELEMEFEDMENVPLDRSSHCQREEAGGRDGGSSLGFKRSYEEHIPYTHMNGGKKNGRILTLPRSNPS
Chain of ALK tyrosine kinase receptor (Q9UM73 whole entry): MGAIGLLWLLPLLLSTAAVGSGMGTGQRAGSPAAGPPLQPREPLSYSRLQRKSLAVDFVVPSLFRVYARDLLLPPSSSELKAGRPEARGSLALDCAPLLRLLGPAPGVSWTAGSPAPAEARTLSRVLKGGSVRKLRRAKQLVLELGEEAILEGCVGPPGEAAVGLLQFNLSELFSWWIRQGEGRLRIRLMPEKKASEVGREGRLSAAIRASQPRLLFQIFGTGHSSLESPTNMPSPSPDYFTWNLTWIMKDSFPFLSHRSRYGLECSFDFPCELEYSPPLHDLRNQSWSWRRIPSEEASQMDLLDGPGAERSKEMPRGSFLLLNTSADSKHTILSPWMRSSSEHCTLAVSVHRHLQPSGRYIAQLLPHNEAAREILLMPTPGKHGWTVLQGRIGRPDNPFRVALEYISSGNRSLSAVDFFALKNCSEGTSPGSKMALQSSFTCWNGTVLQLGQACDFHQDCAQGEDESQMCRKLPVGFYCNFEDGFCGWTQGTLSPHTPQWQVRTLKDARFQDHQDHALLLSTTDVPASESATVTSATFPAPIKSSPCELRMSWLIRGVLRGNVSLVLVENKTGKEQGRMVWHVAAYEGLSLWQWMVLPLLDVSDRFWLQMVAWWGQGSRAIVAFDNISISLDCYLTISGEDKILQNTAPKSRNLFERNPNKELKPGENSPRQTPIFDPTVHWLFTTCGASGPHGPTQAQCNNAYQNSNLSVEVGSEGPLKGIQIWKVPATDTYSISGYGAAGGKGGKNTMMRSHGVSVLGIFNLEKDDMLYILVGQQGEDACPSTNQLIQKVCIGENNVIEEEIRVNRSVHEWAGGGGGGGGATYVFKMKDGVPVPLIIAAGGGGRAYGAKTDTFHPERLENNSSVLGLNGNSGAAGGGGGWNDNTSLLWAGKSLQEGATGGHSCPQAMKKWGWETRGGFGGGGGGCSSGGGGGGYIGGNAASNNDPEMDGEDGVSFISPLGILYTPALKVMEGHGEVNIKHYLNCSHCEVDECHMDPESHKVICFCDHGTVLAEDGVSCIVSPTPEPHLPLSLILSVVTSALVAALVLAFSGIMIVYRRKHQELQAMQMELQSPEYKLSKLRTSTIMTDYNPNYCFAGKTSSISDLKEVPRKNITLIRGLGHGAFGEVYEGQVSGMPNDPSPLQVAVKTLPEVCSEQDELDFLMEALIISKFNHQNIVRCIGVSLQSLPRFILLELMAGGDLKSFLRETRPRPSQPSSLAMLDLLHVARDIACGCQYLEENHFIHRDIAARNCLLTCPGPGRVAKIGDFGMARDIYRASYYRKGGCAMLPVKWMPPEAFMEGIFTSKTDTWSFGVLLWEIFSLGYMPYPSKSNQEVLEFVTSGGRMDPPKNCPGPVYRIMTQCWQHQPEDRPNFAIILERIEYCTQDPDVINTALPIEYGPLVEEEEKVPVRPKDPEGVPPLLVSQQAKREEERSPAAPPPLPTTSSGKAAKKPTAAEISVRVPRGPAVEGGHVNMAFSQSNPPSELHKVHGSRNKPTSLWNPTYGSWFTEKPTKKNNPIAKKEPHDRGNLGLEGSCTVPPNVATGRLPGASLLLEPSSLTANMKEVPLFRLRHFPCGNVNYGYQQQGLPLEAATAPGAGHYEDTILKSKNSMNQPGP

As for `COC(=O)c1cccc(Oc2nc[nH]c(=O)c2C2CC(C)=NN2C(C)=O)c1` (stereo not drawn), the IC50 (in general, the concentration that inhibits the measured activity by half) in experiment [1] was more than 40 µM; in experiment [2] it was 9 µM; in experiment [3] it was more than 40 µM.
Turning to `COC(=O)c1cccc(Oc2nc[nH]c(=O)c2/C=C/C(C)=O)c1`, the IC50 in experiment [1] is more than 40 µM; in experiment [2] it was 3.03 µM; in experiment [3], 4.01 µM.
For `CCOC(=O)/C=C/c1c(Oc2cccc(C(=O)OC)c2)nc[nH]c1=O` the same measures were more than 40 µM, more than 40 µM and more than 40 µM.
Regarding `CC(=O)/C=C/c1c(Oc2ccc(C)cc2)nc[nH]c1=O`, the IC50 in experiment [1], in experiment [2] and in experiment [3] was more than 40 µM each time.
`CCOC(=O)/C=C/c1c(Oc2ccc(C)cc2)nc[nH]c1=O`: the IC50 in experiment [1], in experiment [2] and in experiment [3] was more than 40 µM throughout.
As for `CC(=O)/C=C/c1c(Oc2ccc(C(C)(C)C)cc2)nc[nH]c1=O`, the IC50 in experiment [1], in experiment [2] and in experiment [3] was more than 40 µM throughout.
Consider `CCOC(=O)/C=C/c1c(Oc2ccc(C(C)(C)C)cc2)nc[nH]c1=O`, for which the IC50 in experiment [1], in experiment [2] and in experiment [3] was more than 40 µM throughout.
In the case of `CC(=O)/C=C/c1c(Oc2ccccc2Cl)nc[nH]c1=O`, the IC50 in experiment [1], in experiment [2] and in experiment [3] was more than 40 µM in each case.
With `CCOC(=O)/C=C/c1c(Oc2ccccc2Cl)nc[nH]c1=O`, the half-maximal inhibitory concentration (IC50) in experiment [1], in experiment [2] and in experiment [3] was more than 40 µM in each case.
On to `CC(=O)/C=C/c1c(Oc2ccc(F)cc2)nc[nH]c1=O`, for which the IC50 in experiment [1], in experiment [2] and in experiment [3] was more than 40 µM throughout.
On to `CCOC(=O)/C=C/c1c(Oc2ccc(F)cc2)nc[nH]c1=O`, for which the IC50 in experiment [1], in experiment [2] and in experiment [3] was more than 40 µM in each case.
`COC(=O)c1cc(OC)ccc1Oc1nc[nH]c(=O)c1/C=C/C(C)=O`: the IC50 in experiment [1], in experiment [2] and in experiment [3] was more than 40 µM in each case.
For `CCOC(=O)/C=C/c1c(Oc2ccc(OC)cc2C(=O)OC)nc[nH]c1=O`, the IC50 in experiment [1], in experiment [2] and in experiment [3] was more than 40 µM each time.
On to `COc1cccc(OC)c1Oc1nc[nH]c(=O)c1/C=C/C(C)=O`, for which the IC50 in experiment [1], in experiment [2] and in experiment [3] was more than 40 µM in each case.
As for `CCOC(=O)/C=C/c1c(Oc2c(OC)cccc2OC)nc[nH]c1=O`, the IC50 in experiment [1], in experiment [2] and in experiment [3] was more than 40 µM throughout.
For `CC(=O)/C=C/c1c(Oc2cccc(C#N)c2)nc[nH]c1=O`, the IC50 in experiment [1], in experiment [2] and in experiment [3] was more than 40 µM in each case.
Regarding `CCOC(=O)/C=C/c1c(Oc2cccc(C#N)c2)nc[nH]c1=O`, the IC50 in experiment [1], in experiment [2] and in experiment [3] was more than 40 µM in each case.
Regarding `COc1cc(Cl)ccc1Oc1nc[nH]c(=O)c1/C=C/C(C)=O`, the IC50 in experiment [1], in experiment [2] and in experiment [3] was more than 40 µM throughout.
`CCOC(=O)/C=C/c1c(Oc2ccc(Cl)cc2OC)nc[nH]c1=O`: the IC50 in experiment [1], in experiment [2] and in experiment [3] was more than 40 µM throughout.
For the compound `COc1cccc(Oc2nc[nH]c(=O)c2/C=C/C(C)=O)c1`, the IC50 in experiment [1], in experiment [2] and in experiment [3] was more than 40 µM each time.
As to `CCOC(=O)/C=C/c1c(Oc2cccc(OC)c2)nc[nH]c1=O`, the IC50 in experiment [1], in experiment [2] and in experiment [3] was more than 40 µM in each case.
Regarding `CC(=O)/C=C/c1c(Oc2c(Cl)cccc2Cl)nc[nH]c1=O`, the IC50 in experiment [1], in experiment [2] and in experiment [3] was more than 40 µM each time.
For `CCOC(=O)/C=C/c1c(Oc2c(Cl)cccc2Cl)nc[nH]c1=O`, the IC50 in experiment [1], in experiment [2] and in experiment [3] was more than 40 µM throughout.
Take `CC(=O)/C=C/c1c(Oc2ccc(NC(C)=O)cc2)nc[nH]c1=O`: the IC50 in experiment [1] is more than 40 µM; in experiment [2] it was 6.64 µM; in experiment [3] it was more than 40 µM.
With `CC(=O)/C=C/c1c(Oc2cccc(C(C)=O)c2)nc[nH]c1=O`, the IC50 was more than 40 µM in experiment [1], 6.25 µM in experiment [2] and more than 40 µM in experiment [3].
On to `CC(=O)/C=C/c1c(Oc2ccc(O)cc2)nc[nH]c1=O`, for which the IC50 in experiment [1] was more than 40 µM; in experiment [2], 7.57 µM; in experiment [3], more than 40 µM.
For `CC(=O)/C=C/c1c(Oc2ccc(C#N)cc2)nc[nH]c1=O`, the figures for the IC50 in experiment [1], in experiment [2] and in experiment [3] were more than 40 µM, 6.91 µM and more than 40 µM, respectively.
In the case of `COc1cc(Oc2nc[nH]c(=O)c2/C=C/C(C)=O)c(C(C)=O)cc1OC`, the figures for the IC50 in experiment [1], in experiment [2] and in experiment [3] were more than 40 µM, 7.54 µM and more than 40 µM, respectively.
Turning to `CC(=O)/C=C/c1c(Oc2ccccc2C(C)=O)nc[nH]c1=O`, the IC50 in experiment [1], in experiment [2] and in experiment [3] was more than 40 µM each time.
`CC(=O)/C=C/c1c(Oc2ccc(C(C)=O)c(F)c2)nc[nH]c1=O`: the IC50 in experiment [1], in experiment [2] and in experiment [3] was more than 40 µM in each case.
For `COC(=O)c1ccc(OC)cc1Oc1nc[nH]c(=O)c1/C=C/C(C)=O`, the IC50 in experiment [1] was more than 40 µM; in experiment [2], 10.2 µM; in experiment [3], more than 40 µM.
Consider `CC(=O)/C=C/c1c(Oc2ccc(C)cc2C(C)=O)nc[nH]c1=O`, for which the IC50 in experiment [1], in experiment [2] and in experiment [3] was more than 40 µM throughout.
Turning to `CCOC(=O)c1ccccc1Oc1nc[nH]c(=O)c1/C=C/C(C)=O`, the IC50 was more than 40 µM in experiment [1], 7.54 µM in experiment [2] and more than 40 µM in experiment [3].
Regarding `CC(=O)/C=C/c1c(Oc2c(C)cc(C(C)=O)cc2C)nc[nH]c1=O`, the IC50 in experiment [1], in experiment [2] and in experiment [3] was more than 40 µM throughout.
For the compound `COC(=O)c1cc(Cl)ccc1Oc1nc[nH]c(=O)c1/C=C/C(C)=O`, the IC50 in experiment [1], in experiment [2] and in experiment [3] was more than 40 µM each time.
Regarding `CCCCCCOC(=O)c1ccccc1Oc1nc[nH]c(=O)c1/C=C/C(C)=O`, the IC50 in experiment [1], in experiment [2] and in experiment [3] was more than 40 µM in each case.
For the compound `CCOC(=O)c1ccc(Oc2nc[nH]c(=O)c2/C=C/C(C)=O)cc1`, the IC50 in experiment [1], in experiment [2] and in experiment [3] was more than 40 µM in each case.
In the case of `CC(=O)/C=C/c1c(Oc2cc(C(F)(F)F)ccc2Cl)nc[nH]c1=O`, the results for the IC50 in experiment [1], in experiment [2] and in experiment [3] were more than 40 µM, 9.87 µM and more than 40 µM, respectively.
Consider `COC(=O)c1cccc(Oc2nc[nH]c(=O)c2CCC(C)=O)c1`, for which the IC50 in experiment [1], in experiment [2] and in experiment [3] was more than 40 µM in each case.
In the case of `COC(=O)c1cccc(Oc2nc[nH]c(=O)c2C2CC(C)=NN2C)c1` (stereo not drawn), the IC50 in experiment [1], in experiment [2] and in experiment [3] was more than 40 µM each time.
As to `COC(=O)c1cccc(Oc2nc[nH]c(=O)c2C2CC(C)=NN2)c1` (stereo not drawn), the IC50 in experiment [1], in experiment [2] and in experiment [3] was more than 40 µM in each case.
In the case of `COC(=O)c1cccc(Oc2nc[nH]c(=O)c2-c2ccncc2)c1`, the IC50 in experiment [1], in experiment [2] and in experiment [3] was more than 40 µM throughout.
In the case of `COC(=O)c1cccc(Oc2nc[nH]c(=O)c2-c2cccc(N)c2)c1`, the IC50 in experiment [1], in experiment [2] and in experiment [3] was more than 40 µM throughout.
As to `COC(=O)c1cccc(Oc2nc[nH]c(=O)c2-c2cccc(OC)c2)c1`, the IC50 in experiment [1], in experiment [2] and in experiment [3] was more than 40 µM each time.
Consider `COC(=O)c1cccc(Oc2nc[nH]c(=O)c2-c2ccccc2)c1`, for which the IC50 in experiment [1], in experiment [2] and in experiment [3] was more than 40 µM in each case.
Take `COC(=O)c1cccc(Oc2nc[nH]c(=O)c2-c2cccc(C)c2)c1`: the IC50 in experiment [1], in experiment [2] and in experiment [3] was more than 40 µM each time.
